Laboratory results reported in ChEMBL document CHEMBL3991601, “The target landscape of clinical kinase drugs” (Science, 2017).
Active and inactive are the calls of the source. On the calls: in the data inactive means no Kd found up to 30 µM.

Legend:
[1] = target: Eukaryotic peptide chain release factor GTP-binding subunit ERF3B (Homo sapiens, UniProt Q8IYD1)
[2] = target: T1, Tyrosine-protein kinase Mer (Homo sapiens, UniProt Q12866)
T1 sequence (Q12866 whole entry): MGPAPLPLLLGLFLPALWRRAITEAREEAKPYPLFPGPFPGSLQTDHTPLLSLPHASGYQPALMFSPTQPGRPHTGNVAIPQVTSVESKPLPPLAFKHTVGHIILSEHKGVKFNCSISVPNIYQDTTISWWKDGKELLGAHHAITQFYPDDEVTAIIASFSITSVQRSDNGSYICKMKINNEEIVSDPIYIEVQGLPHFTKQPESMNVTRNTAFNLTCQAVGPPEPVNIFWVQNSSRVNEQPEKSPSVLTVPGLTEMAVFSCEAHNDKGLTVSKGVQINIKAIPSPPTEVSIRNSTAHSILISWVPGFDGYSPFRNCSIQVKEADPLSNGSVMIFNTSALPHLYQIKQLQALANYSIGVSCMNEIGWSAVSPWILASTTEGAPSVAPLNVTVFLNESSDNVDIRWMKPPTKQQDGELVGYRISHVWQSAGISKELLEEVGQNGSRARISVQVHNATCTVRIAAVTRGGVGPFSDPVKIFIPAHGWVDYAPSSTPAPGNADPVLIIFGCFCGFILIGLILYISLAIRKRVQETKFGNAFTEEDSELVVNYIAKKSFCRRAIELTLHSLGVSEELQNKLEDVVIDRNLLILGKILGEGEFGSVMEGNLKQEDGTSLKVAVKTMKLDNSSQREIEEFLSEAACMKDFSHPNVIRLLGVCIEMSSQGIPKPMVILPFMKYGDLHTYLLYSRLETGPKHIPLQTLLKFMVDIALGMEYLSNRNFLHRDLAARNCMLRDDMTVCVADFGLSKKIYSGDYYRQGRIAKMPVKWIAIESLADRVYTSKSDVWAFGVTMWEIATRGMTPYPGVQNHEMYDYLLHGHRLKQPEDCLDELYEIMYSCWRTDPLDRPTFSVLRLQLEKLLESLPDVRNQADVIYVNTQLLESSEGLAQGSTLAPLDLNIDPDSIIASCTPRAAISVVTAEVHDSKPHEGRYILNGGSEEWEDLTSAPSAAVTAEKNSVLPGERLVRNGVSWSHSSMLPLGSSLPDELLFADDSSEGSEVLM

[3] = target: Dual specificity testis-specific protein kinase 2 (Homo sapiens, UniProt Q96S53)
Dual specificity testis-specific protein kinase 2, sequence (Q96S53 whole entry): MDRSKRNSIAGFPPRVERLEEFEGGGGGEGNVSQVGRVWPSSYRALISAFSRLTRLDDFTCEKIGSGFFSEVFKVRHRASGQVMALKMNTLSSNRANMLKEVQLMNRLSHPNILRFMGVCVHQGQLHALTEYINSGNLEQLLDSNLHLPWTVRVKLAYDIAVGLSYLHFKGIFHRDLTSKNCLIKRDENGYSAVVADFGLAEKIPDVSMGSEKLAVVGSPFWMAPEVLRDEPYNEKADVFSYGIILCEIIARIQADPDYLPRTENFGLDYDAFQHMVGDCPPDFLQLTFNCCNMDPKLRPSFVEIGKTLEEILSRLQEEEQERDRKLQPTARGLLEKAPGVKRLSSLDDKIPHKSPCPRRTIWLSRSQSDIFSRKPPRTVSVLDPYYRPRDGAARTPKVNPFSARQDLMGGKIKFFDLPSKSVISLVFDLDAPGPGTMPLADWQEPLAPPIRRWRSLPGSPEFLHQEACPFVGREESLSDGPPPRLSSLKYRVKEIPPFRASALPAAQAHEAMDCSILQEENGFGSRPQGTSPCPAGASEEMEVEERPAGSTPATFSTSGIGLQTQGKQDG

[4] = target: T2, Dual specificity mitogen-activated protein kinase kinase 4 (Homo sapiens, UniProt P45985)
T2 sequence (P45985 whole entry): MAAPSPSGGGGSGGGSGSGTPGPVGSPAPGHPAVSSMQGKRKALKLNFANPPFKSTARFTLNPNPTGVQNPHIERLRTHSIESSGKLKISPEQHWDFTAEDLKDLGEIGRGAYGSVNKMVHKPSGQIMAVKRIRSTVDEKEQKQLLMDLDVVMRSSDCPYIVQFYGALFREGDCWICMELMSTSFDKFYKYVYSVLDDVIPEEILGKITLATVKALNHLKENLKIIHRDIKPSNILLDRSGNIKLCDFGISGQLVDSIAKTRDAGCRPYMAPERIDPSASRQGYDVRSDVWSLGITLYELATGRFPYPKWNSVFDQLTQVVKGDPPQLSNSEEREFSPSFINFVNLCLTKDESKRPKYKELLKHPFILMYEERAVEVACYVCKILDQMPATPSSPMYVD

[5] = target: T3, Protein kinase C zeta type (Homo sapiens, UniProt Q05513)
T3 sequence (Q05513 whole entry): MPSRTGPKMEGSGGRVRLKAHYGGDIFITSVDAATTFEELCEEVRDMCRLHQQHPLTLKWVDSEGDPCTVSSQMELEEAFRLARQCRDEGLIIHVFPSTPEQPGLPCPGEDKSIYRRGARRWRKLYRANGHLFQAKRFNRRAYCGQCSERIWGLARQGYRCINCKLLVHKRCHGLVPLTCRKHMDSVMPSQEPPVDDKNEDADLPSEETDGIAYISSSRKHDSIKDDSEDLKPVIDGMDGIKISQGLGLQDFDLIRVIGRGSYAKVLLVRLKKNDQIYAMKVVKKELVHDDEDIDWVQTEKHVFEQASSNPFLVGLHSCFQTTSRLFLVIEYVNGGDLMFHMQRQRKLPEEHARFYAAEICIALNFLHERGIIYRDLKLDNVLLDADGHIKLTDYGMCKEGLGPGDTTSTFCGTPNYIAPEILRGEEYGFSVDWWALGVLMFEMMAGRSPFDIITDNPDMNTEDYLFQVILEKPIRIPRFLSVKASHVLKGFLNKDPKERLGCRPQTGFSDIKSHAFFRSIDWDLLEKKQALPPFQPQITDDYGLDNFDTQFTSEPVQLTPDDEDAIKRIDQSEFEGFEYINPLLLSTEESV

[6] = target: Serine/threonine-protein kinase 38 (Homo sapiens, UniProt Q15208)
Serine/threonine-protein kinase 38, sequence (Q15208 whole entry): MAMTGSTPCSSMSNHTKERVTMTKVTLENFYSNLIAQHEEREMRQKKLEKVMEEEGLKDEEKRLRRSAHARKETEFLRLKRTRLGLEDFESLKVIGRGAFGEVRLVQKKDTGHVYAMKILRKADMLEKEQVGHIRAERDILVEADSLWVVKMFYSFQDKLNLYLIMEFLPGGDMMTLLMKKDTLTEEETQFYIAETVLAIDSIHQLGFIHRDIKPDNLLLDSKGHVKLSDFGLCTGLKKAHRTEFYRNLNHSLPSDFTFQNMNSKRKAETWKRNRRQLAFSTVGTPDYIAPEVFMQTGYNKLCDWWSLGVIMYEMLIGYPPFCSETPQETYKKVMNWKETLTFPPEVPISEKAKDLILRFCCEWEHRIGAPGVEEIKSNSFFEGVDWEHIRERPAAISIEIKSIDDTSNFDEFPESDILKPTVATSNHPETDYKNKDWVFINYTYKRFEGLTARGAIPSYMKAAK

[7] = target: MAP kinase-activated protein kinase 3 (Homo sapiens, UniProt Q16644)
MAP kinase-activated protein kinase 3, sequence (Q16644 whole entry): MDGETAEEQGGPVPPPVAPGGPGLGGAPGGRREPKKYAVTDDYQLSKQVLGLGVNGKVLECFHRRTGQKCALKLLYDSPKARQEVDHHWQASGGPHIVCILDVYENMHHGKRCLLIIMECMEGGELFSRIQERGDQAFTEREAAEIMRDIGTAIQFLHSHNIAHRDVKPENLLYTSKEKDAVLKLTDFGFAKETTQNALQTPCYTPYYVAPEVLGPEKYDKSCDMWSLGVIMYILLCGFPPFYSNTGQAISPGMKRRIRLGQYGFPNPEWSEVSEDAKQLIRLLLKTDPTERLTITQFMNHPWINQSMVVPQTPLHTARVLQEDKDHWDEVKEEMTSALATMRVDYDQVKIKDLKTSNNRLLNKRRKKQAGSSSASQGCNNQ

[8] = target: Tyrosine-protein kinase Fgr (Homo sapiens, UniProt P09769)
Tyrosine-protein kinase Fgr, sequence (P09769 whole entry): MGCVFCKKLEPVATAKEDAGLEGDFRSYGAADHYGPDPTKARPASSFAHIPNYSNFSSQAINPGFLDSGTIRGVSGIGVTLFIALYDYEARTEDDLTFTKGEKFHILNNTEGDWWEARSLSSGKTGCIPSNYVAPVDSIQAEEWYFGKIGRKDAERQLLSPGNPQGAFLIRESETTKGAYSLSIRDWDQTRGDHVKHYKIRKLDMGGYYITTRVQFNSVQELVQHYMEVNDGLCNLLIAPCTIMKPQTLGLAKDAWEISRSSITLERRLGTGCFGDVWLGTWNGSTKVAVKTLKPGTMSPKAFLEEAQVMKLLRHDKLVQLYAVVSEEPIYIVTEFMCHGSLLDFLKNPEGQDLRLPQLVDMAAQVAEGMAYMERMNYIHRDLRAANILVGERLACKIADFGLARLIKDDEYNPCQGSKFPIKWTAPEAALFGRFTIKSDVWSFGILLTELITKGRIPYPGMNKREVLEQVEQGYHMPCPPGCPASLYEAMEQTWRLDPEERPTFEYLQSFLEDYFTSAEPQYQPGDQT

[9] = target: Cyclin-dependent kinase 10 (Homo sapiens, UniProt Q15131)
Cyclin-dependent kinase 10, sequence (Q15131 whole entry): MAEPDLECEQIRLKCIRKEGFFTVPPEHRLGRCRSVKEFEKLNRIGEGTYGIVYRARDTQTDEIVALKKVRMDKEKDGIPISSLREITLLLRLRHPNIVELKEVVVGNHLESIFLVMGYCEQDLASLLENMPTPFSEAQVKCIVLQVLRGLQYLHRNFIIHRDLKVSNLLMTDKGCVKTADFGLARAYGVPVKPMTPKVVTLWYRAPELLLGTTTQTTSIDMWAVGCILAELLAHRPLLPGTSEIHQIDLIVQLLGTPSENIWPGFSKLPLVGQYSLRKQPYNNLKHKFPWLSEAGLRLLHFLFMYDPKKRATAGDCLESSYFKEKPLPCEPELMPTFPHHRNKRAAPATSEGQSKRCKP

Eukaryotic peptide chain release factor GTP-binding subunit ERF3B, sequence (Q8IYD1 whole entry): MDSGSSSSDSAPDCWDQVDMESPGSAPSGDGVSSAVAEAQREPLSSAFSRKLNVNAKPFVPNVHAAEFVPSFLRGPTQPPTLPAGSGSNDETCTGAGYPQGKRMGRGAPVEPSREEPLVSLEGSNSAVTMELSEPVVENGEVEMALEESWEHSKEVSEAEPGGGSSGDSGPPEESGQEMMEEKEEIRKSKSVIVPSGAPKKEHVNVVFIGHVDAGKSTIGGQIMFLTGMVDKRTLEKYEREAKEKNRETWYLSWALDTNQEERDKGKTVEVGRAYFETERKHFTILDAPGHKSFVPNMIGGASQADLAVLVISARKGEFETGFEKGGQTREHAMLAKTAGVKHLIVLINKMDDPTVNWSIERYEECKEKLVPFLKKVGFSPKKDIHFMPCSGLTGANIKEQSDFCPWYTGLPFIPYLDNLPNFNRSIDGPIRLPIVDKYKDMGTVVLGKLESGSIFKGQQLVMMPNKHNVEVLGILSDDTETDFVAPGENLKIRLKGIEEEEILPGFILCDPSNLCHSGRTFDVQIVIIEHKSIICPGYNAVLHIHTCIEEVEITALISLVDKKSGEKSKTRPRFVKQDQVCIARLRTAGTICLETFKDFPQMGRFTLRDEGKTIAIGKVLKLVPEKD

Row | SMILES | Kd [2] | Kd [3] | Kd [4] | Kd [5] | Kd [6] | other results
1 | N[C@@H]1CCCN(c2c(/C=C3\SC(=O)NC3=O)cccc2-c2ccccc2)C1 |  |  |  |  |  | Kd [1]: > 30 µM (inactive)
2 | CN1CC[C@@H](c2c(O)cc(O)c3c(=O)cc(-c4ccccc4Cl)oc23)[C@@H]1CO | > 30 µM (inactive) |  |  |  |  | 
3 | CCS(=O)(=O)N1CC(CC#N)(n2cc(-c3ncnc4[nH]ccc34)cn2)C1 [BARICITINIB] |  |  |  |  |  | Kd [1]: > 30 µM (inactive); Kd [7]: > 30 µM (inactive)
4 | CNC(=O)c1ccc(-c2cnc3ncc(Cc4ccc5ncccc5c4)n3n2)cc1F [CAPMATINIB] | > 30 µM (inactive) |  |  | > 30 µM (inactive) | > 30 µM (inactive) | Kd [1]: > 30 µM (inactive)
5 | O=C(c1ccc(F)c(F)c1Nc1ccc(I)cc1F)N1CC(O)([C@@H]2CCCCN2)C1 [COBIMETINIB] |  | > 30 µM (inactive) | > 30 µM (inactive) |  |  | Kd [7]: > 30 µM (inactive)
6 | CCc1cnn2c(NCc3ccc[n+]([O-])c3)cc(N3CCCC[C@H]3CCO)nc12 [DINACICLIB] | > 30 µM (inactive) | > 30 µM (inactive) | > 30 µM (inactive) | > 30 µM (inactive) |  | 
7 | CN1CCN(c2ccc3nc(-c4c(N)c5c(F)cccc5[nH]c4=O)[nH]c3c2)CC1 [DOVITINIB] |  | > 30 µM (inactive) |  | > 30 µM (inactive) |  | Kd [9]: > 30 µM (inactive)
8 | CO[C@H]1C[C@@H]2CC[C@@H](C)[C@@](O)(O2)C(=O)C(=O)N2CCCC[C@H]2C(=O)O[C@H]([C@H](C)C[C@@H]2CC[C@@H](OCCO)[C@H](OC)C2)CC(=O)[C@H](C)/C=C(\C)[C@@H](O)[C@@H](OC)C(=O)[C@H](C)C[C@H](C)/C=C/C=C/C=C/1C [EVEROLIMUS] |  | > 30 µM (inactive) |  |  |  | Kd [1]: > 30 µM (inactive); Kd [8]: > 30 µM (inactive)
9 | COCCNCc1ccc(-c2cc3nccc(Oc4ccc(NC(=S)NC(=O)Cc5ccc(F)cc5)cc4F)c3s2)nc1 [GLESATINIB] |  | > 30 µM (inactive) | > 30 µM (inactive) | > 30 µM (inactive) |  | Kd [7]: > 30 µM (inactive)
10 | Cc1c(F)cc(C(=O)NC2CC2)cc1-c1ccc(C(=O)NCC(C)(C)C)cn1 [LOSMAPIMOD] | > 30 µM (inactive) | > 30 µM (inactive) |  |  | > 30 µM (inactive) | 
11 | Cc1cn(-c2cc(NC(=O)c3ccc(C)c(Nc4nccc(-c5cccnc5)n4)c3)cc(C(F)(F)F)c2)cn1 [NILOTINIB] |  | > 30 µM (inactive) |  | > 30 µM (inactive) |  | 
12 | Cc1ccc(-n2nc(C(C)(C)C)cc2NC(=O)NCc2cc(F)ccc2Oc2ccc3c(cnn3CCO)c2)cc1 [PEXMETINIB] | 2.81 µM |  | > 30 µM (inactive) |  | > 30 µM (inactive) | Kd [7]: > 30 µM (inactive)
13 | C=CC(=O)N1CCC(Oc2cc3c(Nc4ccc(Cl)c(Cl)c4F)ncnc3cc2OC)CC1 [POZIOTINIB] |  | > 30 µM (inactive) |  | > 30 µM (inactive) | > 30 µM (inactive) | 
14 | CNC(=O)c1cc(Oc2ccc(NC(=O)Nc3ccc(Cl)c(C(F)(F)F)c3)c(F)c2)ccn1 [REGORAFENIB] |  | > 30 µM (inactive) |  |  |  | Kd [8]: > 30 µM (inactive); Kd [9]: > 30 µM (inactive)
15 | CN(C)C(=O)c1cc2cnc(Nc3ccc(N4CCNCC4)cn3)nc2n1C1CCCC1 [RIBOCICLIB] |  | > 30 µM (inactive) | > 30 µM (inactive) |  |  | 
16 | COc1cc(OC)c(/C=C/S(=O)(=O)Cc2ccc(OC)c(NCC(=O)O)c2)c(OC)c1 [RIGOSERTIB] |  | > 30 µM (inactive) |  | > 30 µM (inactive) | > 30 µM (inactive) | Kd [8]: > 30 µM (inactive)
17 | CNC(=O)CN1CCC(Oc2cc3c(Nc4cccc(Cl)c4F)ncnc3cc2OC)CC1 [SAPITINIB] | > 30 µM (inactive) | > 30 µM (inactive) | > 30 µM (inactive) | > 30 µM (inactive) |  | 
18 | C[C@@H](c1ccc2nccn2c1)n1nnc2ncc(-c3cnn(C)c3)nc21 [SAVOLITINIB] |  | > 30 µM (inactive) |  |  |  | 
19 | C[C@@H]1CN(Cc2ccc(F)cc2)[C@@H](C)CN1C(=O)c1cc2c(C(=O)C(=O)N(C)C)cn(C)c2cc1Cl [TALMAPIMOD] |  | > 30 µM (inactive) |  | > 30 µM (inactive) | > 30 µM (inactive) | Kd [7]: > 30 µM (inactive)
20 | CN1CCC(COc2cnc(-c3cccc(Cn4nc(-c5cccc(C#N)c5)ccc4=O)c3)nc2)CC1 [TEPOTINIB] |  | > 30 µM (inactive) | > 30 µM (inactive) | > 30 µM (inactive) |  | 
21 | Nc1nc(N)c2nc(-c3cccc(O)c3)c(-c3cccc(O)c3)nc2n1 [TG100-115] |  | > 30 µM (inactive) |  | > 30 µM (inactive) |  | 
22 | COc1cc2nccc(Oc3ccc(NC(=O)Nc4cc(C)on4)c(Cl)c3)c2cc1OC [TIVOZANIB] | > 30 µM (inactive) | > 30 µM (inactive) | > 30 µM (inactive) | > 30 µM (inactive) |  | Kd [9]: > 30 µM (inactive)
23 | CCn1c(=O)c(-c2cc[nH]n2)cc2c(C)nc(N)nc21 [VOXTALISIB] |  |  |  | > 30 µM (inactive) | > 30 µM (inactive) | Kd [1]: > 30 µM (inactive)

Second part, led by results:

Row | Kd [2] | Kd [3] | Kd [4] | Kd [5] | Kd [6] | SMILES | other results
24 | > 30 µM (inactive) | > 30 µM (inactive) | > 30 µM (inactive) | > 30 µM (inactive) | > 30 µM (inactive) | Cc1cc([C@@H](C)Nc2ccccc2C(=O)O)c2nc(N3CCOCC3)cc(=O)n2c1 [AZD-6482] | 
25 |  |  |  |  | > 30 µM (inactive) | C[C@@H](Nc1cc(F)cc(F)c1)c1cc(C(=O)N(C)C)cc2c(=O)cc(N3CCOCC3)oc12 [AZD-8186] | 
26 |  | > 30 µM (inactive) | > 30 µM (inactive) |  |  | Cc1nc(N)sc1-c1ccnc(Nc2ccc(N3CCOCC3)cc2)n1 [CYC-116] | Kd [8]: > 30 µM (inactive)
27 |  | > 30 µM (inactive) | > 30 µM (inactive) |  | > 30 µM (inactive) | Cc1cc(Nc2cc(N3CCN(C)CC3)nc(/C=C/c3ccccc3)n2)n[nH]1 [ENMD-2076] | Kd [9]: > 30 µM (inactive)
28 |  |  |  | > 30 µM (inactive) |  | CCn1c(-c2nonc2N)nc2c(C#CC(C)(C)O)ncc(OC[C@H]3CCCNC3)c21 [GSK-690693] | 
29 |  | > 30 µM (inactive) |  | > 30 µM (inactive) |  | Cn1cc(-c2ccc3nnc(C(F)(F)c4ccc5ncccc5c4)n3n2)cn1 [JNJ-38877605] | Kd [8]: > 30 µM (inactive); Kd [9]: > 30 µM (inactive)
30 |  | > 30 µM (inactive) |  |  | > 30 µM (inactive) | Cn1cc(-c2ccc(F)c(C(F)(F)F)c2)nc1C1CCN(c2ncnc3[nH]ncc23)CC1 [LY-2584702] | 
31 | > 30 µM (inactive) |  | > 30 µM (inactive) | > 30 µM (inactive) | > 30 µM (inactive) | OCCn1cc(-c2cnc3nnn(Cc4ccc5ncccc5c4)c3n2)cn1 [PF-04217903] | Kd [1]: > 30 µM (inactive); Kd [8]: > 30 µM (inactive); Kd [7]: > 30 µM (inactive)
32 |  |  |  |  | > 30 µM (inactive) | CNC(=O)c1ccc(C)c(-n2c(C)cc(OCc3ccc(F)cc3F)c(Br)c2=O)c1 [PH-797804] | Kd [8]: > 30 µM (inactive)
33 | > 30 µM (inactive) | > 30 µM (inactive) |  | > 30 µM (inactive) |  | CN1CCC(CNc2ccc3ncc(-c4cccc(OC(F)(F)F)c4)n3n2)CC1 [SGI-1776] | Kd [7]: > 30 µM (inactive)
